Reference: patent US20110251258A1, “RNAI CONSTRUCTS AND USES THEREOF” (RXi Pharmaceuticals Corporation, priority 2008, published 2011)

Tests used:
PPIB = details: for relative expression of PPIB remaining after transfection: HEK293, 48 hour incubation, even at 10 nM, compared to negative control 10837 and UTC; for activity at sub-nano molar concentrations / target gene expression at about 0.1 nM: HEK293, with RISC-Free filler; for EC50: PPIB expression, HEK293, 48 hours after transfection, dose response with RISC-Free filler; for EC50 fold higher than that of the 25-mer dsRNA 10460: from the EC50 table of Example III; for PPIB gene silencing activity (in words): transfection assay as in Example I
Description: Positive and negative controls were also included. As shown and described in FIG. 4, construct prepared from single-stranded polynucleotide 10837 (SEQ ID NO: 6) was used as a negative control. […] This structure, denoted as construct 10460 (5′P-mCmUmCm[…]mAmAmAmA-3′, SEQ ID NO: 7) in this example, contains 2′-O-methyl modified bases on 4 of the outermost positions at both ends of the sequence.
(§1) All constructs were transfected into HEK293 cells using the LIPOFECTAMINE™ RNAiMAX reagent (Invitrogen Corp., Carlsbad, Calif.) according to manufacture's instructions. In brief, RNA was diluted to a 12× concentration and then combined with a 12× concentration of LIPOFECTAMINE™ RNAiMAX to complex. The RNA and transfection reagent were allowed to complex at room temperature for 20 minutes to yield a 6× concentration. While complexing, HEK293 cells were washed, trypsinized and counted. The cells were diluted to a concentration recommended by the manufacturer which was at 1×10^5 cells/ml. When RNA has completed complexing with the RNAiMAX transfection reagent, 20 μl of the complexes were added to the appropriate well of the 96-well plate in triplicate. Cells were added to each well (100 μl volume) to make the final cell count per well at 1×10^4 cells/well. The volume of cells diluted the 6× concentration of complex to 1× which was equal to 50, 25, or 10 nM. Cells were incubated for 48 hours under normal growth conditions. After 48 hour incubation, cells were lysed and gene silencing activity was measured using the Panomics […]™ assay which employs bDNA hybridization technology. The assay was carried out according to manufacturer's instructions.
Active RNAi construct stocks at 100 or 10 μM were used to make a 3 μM working dilution in RNA Buffer (1:33.333 dilution) by mixing 30 μl of a 10 μM stock+70 μl RNA Buffer. Diluted RNAi compound plates were prepared in a 96 well plate of 0.2 mL PCR tubes as follows:
a. 50 nM Condition (dilute RNA compound to 12× or to 600 nM in OptiMEM, Reduced Serum Medium, Invitrogen Corp., Carlsbad, Calif.): • i. Add 80 μl of OptiMEM to each well • ii. Add 20 μl of working stock RNAi compound (3 μM) to each well with OptiMEM
b. 25 nM Condition (dilute RNA to make 12× or to 300 nM in OptiMEM): • i. Add 50 μl of OptiMEM to each well • ii.
c. 10 nM Condition (dilute RNA compound to 12× or to 120 nM in OptiMEM): • i. Add 30 μl of OptiMEM to each well • ii.
A bulk amount of diluted RNAiMAX and LIPOFECTAMINE™ were made as follows:
a. 1,470 μl Opti-MEM+30 μl RNAiMAX
c. Combine RNAiMAX and Opti-MEM, Lipofectamine and Opti-MEM, mix gently.
Diluted RNAiMAX or LIPOFECTAMINE™ (35 μl each) was added to each 0.2 ml PCR well. Then, 35 μl of diluted RNAi compound from the RNA plate (above) was also added to each well. Each well contained enough for duplicates at a given dose. Each reaction mixture was gently mixed by pipetting up and down 3 times. The mixture was allowed to complex for at least 15 minutes at room temperature. Meanwhile, a suspension of cells at 1×10^5 cells/ml was prepared. After 15 minutes, 20 μl of complexed RNAi was added to each tissue-culture treated 96-well using a multi-channel pipettor. The prepared cell suspension was added to each reaction at a final volume of 1×10^4 cells (100 μl of cell suspension) and allowed to incubate for 48 hours at 37° C., 10% CO2.
Constructs 10460 (SEQ ID NO: 7, see above, a 25-bp double-stranded RNA with blunt ends) and 10167.2 (a 21-bp double-stranded RNA) were included as positive controls. Untransfected control (UTC) was included as a negative control. Transfections were performed as in Example I or according to the manufactures' recommendation. Each construct (except for the UTC) was transfected at a final concentration of about 50 nM, 25 nM, 10 nM, 5 nM, and 1 nM.
The RISC-Free filler is a commercially available control.

MAP4K4 = system: MAP4K4
Description: as §1

U.U.U.U.U.G.G.A.A.C.A.G.U.C.U.U. U.C.C.U.G.U.U.C.C.A.A.A.A.A [compound 11976]
PPIB silencing potency compared with another construct (PPIB): more potent that those designed based on the 10463 sequence (12003 and 12004)

UUUUUGGAACAGUCUUUCCUGUUCCAAAAA [compound 10834]
relative expression of PPIB remaining after transfection (PPIB): dramatically decrease PPIB expression | activity at sub-nano molar concentrations (PPIB): remained partially active | target gene expression at about 0.1 nM (PPIB): at least negative control level | EC50 (PPIB): 1.54 nM | EC50 fold higher than that of the 25-mer dsRNA 10460 (PPIB): about 110 fold | PPIB gene silencing activity (in words) (PPIB): can inhibit PPIB expression

SS: G.G.A.A.A.G.A.C.U.G.U.U.C.C.A.A. A.A.A AS: U.U.U.U.U.G.G.A.A.C.A.G.U. [compound 12000, reference compound]
PPIB gene silencing activity (in words) (PPIB): essentially inactive

U.A.G.A.C.U.U.C.C.A.C.A.G.A.I.I.U. I.I.A.A.G.U.C.U.A [compound 11993]
MAP4K4 gene silencing activity (in words) (MAP4K4): ineffective

SS: P.mC.mU.mC.mU.U.C.G.G.A.A.A.G. A.C.U.G.U.U.C.C.A.mA.mA.mA.mA AS: U.U.U.U.U.G.G.A.A.C.A.G.U.C.U.U. U.C.C.G.A.A.G.A.G [compound 10460, reference compound]
PPIB silencing potency compared with another construct (PPIB): more potent than the dsRNA construct 10463 | EC50 (PPIB): 0.014 nM

U.U.A.C.A.C.G.A.U.G.G.A.A.U.U.U. G.C.U.C.C.A.U.C.G.U.G.U.A.A [compound 12004]
PPIB silencing potency compared with another construct (PPIB): less effective

UUUUUGGAACAGUCUUUCCACUGUUCCAAAAA [compound 10833]
relative expression of PPIB remaining after transfection (PPIB): dramatically decrease PPIB expression | activity at sub-nano molar concentrations (PPIB): remained partially active | target gene expression at about 0.1 nM (PPIB): at least negative control level | EC50 (PPIB): 0.599 nM | EC50 fold higher than that of the 25-mer dsRNA 10460 (PPIB): about 60 fold | PPIB gene silencing activity (in words) (PPIB): can inhibit PPIB expression

U.U.A.C.A.C.G.A.U.G.G.A.A.U.U.U. G.C.U.U.U.C.C.A.U.C.G.U.G.U.A.A. [compound 12003]
PPIB silencing potency compared with another construct (PPIB): less effective

U.U.U.U.U.G.G.A.A.C.A.G.U.C.U.U. U.C.C.A.C.U.G.U.U.C.C.A.A.A.A.A [compound 11975]
PPIB silencing potency compared with another construct (PPIB): more potent that those designed based on the 10463 sequence (12003 and 12004)
